{"source": "patent US20260294770A1", "about": "“FORMULATIONS OF NARINGENIN” (DEBUT BIOTECHNOLOGY, INC., priority 2023, published 2026)", "key": {"KRT77": {"system": "KRT77", "experiment": "Upregulation of gene expression and/or activity, 1% naringenin: KRT77", "text": "(§1) In certain embodiments, administration of a composition comprising naringenin leads to up-regulation of LCE5A, KRT77, ALOXE3, KRT1, HPGD, MUCL1, CASP14, WFDC12, KRT10, DNASE1L2, IL37, SERPINB12, HAL, UPK1A, CALML5, LCE2B, and/or MIR205. In certain embodiments, administration of a composition comprising naringenin leads to down-regulation of CCL11, CSF2, IL23A, IL11, BMP6, IL13RA2, C2CD4A, NR4A2, C2CD4B, FGF2, FARP4, GDF15, THBS1, HSPA1A, PTGS2, and/or DKK1. Tables 10 and 11 provide data for upregulation and downregulation respectively of certain genes after administration of compositions comprising 1% naringenin.\nKertain 77 (KRT77) is involved in production of keratin. In particular, KRT77 encodes an epithelial keratin that is expressed in the skin and eccrine sweat glands. KRT77 encodes keratin 77, a member of the type II keratin family of intermediate filament proteins. Keratin 77 is also known as KRT1B, Type II cytoskeletal 1b, Type IT keratin Kb39, and cytokeratin 1B. In certain embodiments, upregulation of expression and/or activity of KRT77, results in enhanced keratin production. The increased keratin production contributes to increase in the skin barrier strength. In certain embodiments, the administration of composition comprising naringenin results in at least about 5 to about 20-fold upregulation of expression and/or activity of KRT77. […]"}, "KRT10": {"system": "KRT10", "experiment": "Upregulation of gene expression and/or activity, 1% naringenin: KRT10", "text": "as §1\nKeratin 10 (KRT10) is also involved in keratin production. Keratin is involved in increasing the barrier strength and resilience of the skin. Keratin 10 is produced in keratinocytes in the outer layer of the skin (the epidermis). In the fluid-filled space inside these cells (the cytoplasm), the keratin 10 protein partners with a similar protein, keratin 1 (produced from the KRT1 gene), to form molecules called keratin intermediate filaments. These filaments assemble into strong networks that provide strength and resiliency to the skin and protect it from being damaged by friction and other everyday physical stresses. […]"}, "HAL": {"system": "HAL", "experiment": "Upregulation of gene expression and/or activity, 1% naringenin: HAL", "text": "as §1"}, "LCE2B": {"system": "LCE2B", "experiment": "Upregulation of gene expression and/or activity, 1% naringenin: LCE2B", "text": "as §1\nLate cornified envelope 2B (LCE2B) plays a role in the formation of precursors of the cornified envelope of the stratum corneum. It also leads to improved formation of outer skin protective barrier. In certain embodiments, the administration of composition comprising naringenin results in upregulation of LCE2B, which has a role in enhancing the outer skin protective barrier. In certain embodiments, the administration of composition comprising naringenin results in at least about 5 to about 20-fold upregulation of expression and/or activity of LCE2B. In certain embodiments, the administration of composition comprising naringenin results in at least about five (5) fold upregulation of expression and/or activity of LCE2B."}, "MIR205": {"system": "MIR205", "experiment": "Upregulation of gene expression and/or activity, 1% naringenin: MIR205", "text": "as §1\nMicroRNA 205 (MIR205) plays a role in clearance of damaged cells. In certain embodiments, administration of compositions comprising naringenin leads to upregulation of MIR205, which leads to increase clearance of damaged cells. This increase in clearance of damaged cells leads to enhancement in cell turnover and/or recycling, which results in an improvement in anti-aging effect. […] In certain embodiments, the administration of composition comprising naringenin results in at least about 2 to about 10-fold upregulation of expression and/or activity of MIR205. In certain embodiments, the administration of composition comprising naringenin results in at least about five (5) fold upregulation of expression and/or activity of MIR205."}, "IL11": {"system": "IL11", "experiment": "Downregulation of gene expression and/or activity, 1% naringenin: IL11", "text": "as §1\nInterleukin 11 (IL11) plays a role in the inflammatory pathway and in certain pathways that may be involved in cancer. In certain embodiments of the invention, downregulation of IL11 leads to an anti-inflammatory activity and/or anticancer activity. In certain embodiments, the administration of composition comprising naringenin results in at least about 10 to about 20-fold downregulation of expression and/or activity of IL11. In certain embodiments, the administration of composition comprising naringenin results in at least about ten (10) fold downregulation of expression and/or activity of IL11."}, "IL13RA2": {"system": "IL13RA2", "experiment": "Downregulation of gene expression and/or activity, 1% naringenin: IL13RA2", "text": "as §1\nInterleukin 13 receptor subunit alpha 2 (IL13RA2) plays a role in recovery after stressor caused inflammatory response. In certain embodiments, downregulation of IL13RA2 leads to improved recovery after inflammation caused by stressors. In certain embodiments, the administration of composition comprising naringenin results in at least about 5 to about 15-fold downregulation of expression and/or activity of IL13RA2. In certain embodiments, the administration of composition comprising naringenin results in at least about ten (10) fold downregulation of expression and/or activity of IL13RA2."}, "C2CD4A": {"system": "C2CD4A", "experiment": "Downregulation of gene expression and/or activity, 1% naringenin: C2CD4A", "conditions": "negative = downregulation", "text": "as §1"}, "DKK1": {"system": "DKK1", "experiment": "Downregulation of gene expression and/or activity, 1% naringenin: DKK1", "conditions": "negative = downregulation", "text": "as §1"}, "TNFα": {"system": "TNFα", "experiment": "TNFα concentration in stimulated (stressed) normal human epidermal keratinocytes (ELISA)", "type": "cell-based", "conditions": "for TNFα concentration: LPS + Poly:IC stressed NHEK, stimulated control 202.6", "text": "Normal Human Epidermal Keratinocytes (NHEK) were stressed with a cocktail of lipopolysaccharide (LPS) and Polyinosinic-polycytidylic acid sodium salt (Poly:IC), external aggressors capable of inducing an inflammatory response. Stressed cells were subsequently treated with test articles and reduction in inflammatory markers was measuring by ELISA. Tables 19 and 20, provided below, discloses data for TNFα and IL-6 concentrations, respectively, in stressed normal human epidermal keratinocytes."}}, "data": [{"molecule": "O=C1C[C@@H](c2ccc(O)cc2)Oc2cc(O)cc(O)c21", "note": "[naringenin, (2S)-5,7-Dihydroxy-2-(4-hydroxyphenyl)-2,3-dihydro-4H-1-benzopyran-4-one]", "values": [{"measurement": "Fold-increase in expression and/or activity of KRT77", "setting": "KRT77", "result": "~12", "unit": "fold"}, {"measurement": "Fold-increase in expression and/or activity of KRT10", "setting": "KRT10", "result": "~6", "unit": "fold"}, {"measurement": "Fold-increase in expression and/or activity of HAL", "setting": "HAL", "result": 8, "unit": "fold"}, {"measurement": "Fold-increase in expression and/or activity of LCE2B", "setting": "LCE2B", "result": "~9", "unit": "fold"}, {"measurement": "Fold-increase in expression and/or activity of MIR205", "setting": "MIR205", "result": "~6", "unit": "fold"}, {"measurement": "fold downregulation in expression and/or activity of IL11", "setting": "IL11", "result": "~14", "unit": "fold"}, {"measurement": "fold downregulation in expression and/or activity of IL13RA2", "setting": "IL13RA2", "result": "~10", "unit": "fold"}, {"measurement": "Fold-increase (downregulation table) IL13RA2", "setting": "IL13RA2; negative = downregulation", "result": "−10", "unit": "fold"}, {"measurement": "Fold-increase (downregulation table) C2CD4A", "setting": "C2CD4A", "result": "−10", "unit": "fold"}, {"measurement": "Fold-increase (downregulation table) DKK1", "setting": "DKK1", "result": "−5", "unit": "fold"}, {"measurement": "TNFα concentration", "setting": "TNFα; 0.0001% naringenin, p-value 6.99E−07", "result": 94.3, "unit": "pg/mL"}, {"measurement": "TNFα concentration", "setting": "TNFα; 0.0045% naringenin, p-value 0.002047", "result": 43.8, "unit": "pg/mL"}, {"measurement": "TNFα concentration", "setting": "TNFα; 0.007% naringenin, p-value 0.002961", "result": 70.3, "unit": "pg/mL"}, {"measurement": "TNFα concentration", "setting": "TNFα; 0.01% naringenin, p-value 0.004838", "result": 104.2, "unit": "pg/mL"}, {"measurement": "inhibition at 0.0001 %", "setting": "TNFα; Homo sapiens, NHEK, 0.0001% naringenin, vs stimulated control, p-value 6.99E−07, read-out: TNFα % Reduction vs Treated", "result": 53.4, "unit": "%"}, {"measurement": "inhibition at 0.0045 %", "setting": "TNFα; Homo sapiens, NHEK, 0.0045% naringenin, vs stimulated control, p-value 0.002047, read-out: TNFα % Reduction vs Treated", "result": 78.4, "unit": "%"}, {"measurement": "inhibition at 0.007 %", "setting": "TNFα; Homo sapiens, NHEK, 0.007% naringenin, vs stimulated control, p-value 0.002961, read-out: TNFα % Reduction vs Treated", "result": 65.3, "unit": "%"}, {"measurement": "inhibition at 0.01 %", "setting": "TNFα; Homo sapiens, NHEK, 0.01% naringenin, vs stimulated control, p-value 0.004838, read-out: TNFα % Reduction vs Treated", "result": 48.6, "unit": "%"}, {"measurement": "Reduction of TNFα (in words)", "setting": "TNFα; stressed keratinocytes", "result": "to non-stressed levels"}]}]}
